Data as given in ChEMBL document CHEMBL3882725, “Indazole derivatives as JNK inhibitors and compositions and methods related thereto” (2002).

Each compound was assayed against Mitogen-activated protein kinase 9 (Homo sapiens, UniProt P45984) (assay: Inhibition of His6-tagged JNK2 (unknown origin) assessed as reduction in c-Jun phosphorylation using GST-c-Jun (1 to 79 residues) and [gamma32P]ATP incubated for 1 hr by scintillation counting assay).
Mitogen-activated protein kinase 9, sequence (P45984 whole entry, the tested form may be a part): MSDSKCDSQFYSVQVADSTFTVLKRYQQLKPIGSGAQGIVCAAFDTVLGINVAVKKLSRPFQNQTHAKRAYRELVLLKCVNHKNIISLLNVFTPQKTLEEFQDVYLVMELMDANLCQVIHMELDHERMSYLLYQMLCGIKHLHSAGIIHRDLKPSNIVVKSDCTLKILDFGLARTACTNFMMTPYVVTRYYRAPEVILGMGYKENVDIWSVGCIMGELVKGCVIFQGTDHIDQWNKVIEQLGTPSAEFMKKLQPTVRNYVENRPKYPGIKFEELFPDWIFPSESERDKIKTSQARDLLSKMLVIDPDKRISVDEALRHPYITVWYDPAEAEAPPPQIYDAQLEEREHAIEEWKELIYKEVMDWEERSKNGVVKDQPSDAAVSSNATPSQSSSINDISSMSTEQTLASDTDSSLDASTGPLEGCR

`O=C(Nc1cccc(-c2n[nH]c3ccc(-c4nc[nH]n4)cc23)c1)c1ccco1` and `NC(=O)c1ccc2[nH]nc(-c3cccc(NC(=O)c4ccco4)c3)c2c1` fall in the same range of IC50: 0.5 to 10 µM for the first, 0.5 to 10 µM for the second.

`CN(C)CC(=O)Nc1cccc(-c2n[nH]c3ccc(C(N)=O)cc23)c1` and `NC(=O)c1ccc2[nH]nc(-c3cccc(NC(=O)CCN4CCCCC4)c3)c2c1` fall in the same range of IC50: 1 to 10 µM for the first, 1 to 10 µM for the second.

`Nc1nnc(-c2ccc3[nH]nc(-c4ccc(F)cc4)c3c2)[nH]1` and `CC(O)c1nnc(-c2ccc3[nH]nc(-c4ccc(F)cc4)c3c2)[nH]1` (stereo not given) cannot be ordered by IC50: 1 to 10 µM for the first, 0.5 to 10 µM for the second.

`CS(=O)(=O)c1ccc(-c2n[nH]c3ccc(-c4ncn[nH]4)cc23)cc1` and `C[S+]([O-])c1ccc(-c2n[nH]c3ccc(-c4ncn[nH]4)cc23)cc1` (stereo not given) fall in the same range of IC50: 1 to 10 µM for the first, 1 to 10 µM for the second.

`O=C(Cc1ccccc1)Nc1cccc(-c2n[nH]c3ccc(-c4nnc[nH]4)cc23)c1` and `COCC(=O)Nc1cccc(-c2n[nH]c3ccc(-c4nnc[nH]4)cc23)c1` fall in the same range of IC50: 0.5 to 10 µM for the first, 0.5 to 10 µM for the second.

`c1cc(OCCN2CCNCC2)cc(-c2n[nH]c3ccc(-c4ncn[nH]4)cc23)c1` and `c1cc(OCCN2CCOCC2)cc(-c2n[nH]c3ccc(-c4ncn[nH]4)cc23)c1` fall in the same range of IC50: 1 to 10 µM for the first, 1 to 10 µM for the second.

`COC(=O)CCc1nnc(-c2ccc3[nH]nc(-c4ccc(F)cc4)c3c2)[nH]1` and `O=C(O)CCc1nnc(-c2ccc3[nH]nc(-c4ccc(F)cc4)c3c2)[nH]1` fall in the same range of IC50: 1 to 10 µM for the first, 1 to 10 µM for the second.

`c1nc(-c2ccc3[nH]nc(-c4ccc5c(c4)OCO5)c3c2)n[nH]1` and `Nc1ccc(-c2n[nH]c3ccc(-c4nc[nH]n4)cc23)cc1` fall in the same range of IC50: 1 to 10 µM for the first, 1 to 10 µM for the second.

`CN(C)CCNC(=O)c1ccc2[nH]nc(-c3cc4ccccc4o3)c2c1` and `CN(C)CCNC(=O)c1cccc(-c2n[nH]c3ccc(-c4ncn[nH]4)cc23)c1` cannot be ordered by IC50: 1 to 10 µM for the first, 0.5 to 10 µM for the second.

`O=C1CCCN1CCOc1cccc(-c2n[nH]c3ccc(-c4ncn[nH]4)cc23)c1` and `CC(=O)N1CCN(CCOc2cccc(-c3n[nH]c4ccc(-c5ncn[nH]5)cc34)c2)CC1` fall in the same range of IC50: 1 to 10 µM for the first, 1 to 10 µM for the second.

`CCOC(=O)CCCc1nnc(-c2ccc3[nH]nc(-c4ccc(F)cc4)c3c2)[nH]1` and `O=C(O)Cc1nnc(-c2ccc3[nH]nc(-c4ccc(F)cc4)c3c2)[nH]1` fall in the same range of IC50: 1 to 10 µM for the first, 1 to 10 µM for the second.

`COc1ccc(-c2n[nH]c3ccc(-c4nnn[nH]4)cc23)cc1OC` and `COc1ccc(-c2n[nH]c3ccc(C(N)=O)cc23)cc1OC` cannot be ordered by IC50: 0.5 to 10 µM for the first, 1 to 10 µM for the second.

`CC(C)(C)CC(=O)Nc1cccc(-c2n[nH]c3ccc(-c4nc[nH]n4)cc23)c1` and `CC(O)C(=O)Nc1cccc(-c2n[nH]c3ccc(-c4nc[nH]n4)cc23)c1` (stereo not given) fall in the same range of IC50: 0.5 to 10 µM for the first, 0.5 to 10 µM for the second.

`FC(F)(F)c1ccc(-c2n[nH]c3ccc(-c4ncn[nH]4)cc23)cc1` and `O=C(Nc1ccc(-c2n[nH]c3ccc(-c4ncn[nH]4)cc23)cc1)c1ccco1` fall in the same range of IC50: 1 to 10 µM for the first, 1 to 10 µM for the second.

`O=C(N[C@H]1CCc2ccccc21)c1cccc(-c2n[nH]c3ccc(-c4ncn[nH]4)cc23)c1` and `O=C(N[C@@H]1CCc2ccccc21)c1cccc(-c2n[nH]c3ccc(-c4ncn[nH]4)cc23)c1` fall in the same range of IC50: 0.5 to 10 µM for the first, 0.5 to 10 µM for the second.

`CN(C)CCOc1cccc(-c2n[nH]c3ccc(-c4nnn[nH]4)cc23)c1` and `c1cc(OCCN2CCOCC2)cc(-c2n[nH]c3ccc(-c4nnn[nH]4)cc23)c1` cannot be ordered by IC50: 1 to 10 µM for the first, 0.5 to 10 µM for the second.

`Oc1ccc(-c2nnc(-c3ccc4[nH]nc(-c5ccc(F)cc5)c4c3)[nH]2)cc1` and `CC(=O)N1CCN(Cc2nnc(-c3ccc4[nH]nc(-c5ccc(F)cc5)c4c3)[nH]2)CC1` fall in the same range of IC50: 1 to 10 µM for the first, 1 to 10 µM for the second.

`Nc1cccc(-c2n[nH]c3ccc(-c4nnc[nH]4)cc23)c1` and `NC(=O)c1ccc2[nH]nc(-c3cccc(N)c3)c2c1` fall in the same range of IC50: 1 to 10 µM for the first, 1 to 10 µM for the second.

`CN1CCN(C(=O)c2cccc(-c3n[nH]c4ccc(-c5ncn[nH]5)cc34)c2)CC1` and `CC(C)(C)CNC(=O)c1cccc(-c2n[nH]c3ccc(-c4ncn[nH]4)cc23)c1` cannot be ordered by IC50: no more than 10 µM for the first, 1 to 10 µM for the second.

`c1ccc2sc(-c3n[nH]c4ccc(-c5nn[nH]n5)cc34)cc2c1` and `C[C@H](O)C(=O)Nc1cccc(-c2n[nH]c3ccc(-c4nn[nH]n4)cc23)c1` fall in the same range of IC50: 0.5 to 10 µM for the first, 0.5 to 10 µM for the second.

`CC(=O)O[C@@H](C)C(=O)Nc1cccc(-c2n[nH]c3ccc(-c4nn[nH]n4)cc23)c1` and `O=C(CCN1CCCCC1)Nc1cccc(-c2n[nH]c3ccc(-c4nc[nH]n4)cc23)c1` cannot be ordered by IC50: 0.5 to 10 µM for the first, 1 to 10 µM for the second.

`CC(=O)c1ccc2[nH]nc(-c3ccc(F)cc3)c2c1` and `NC(=O)c1ccc2[nH]nc(-c3cccc(NC(=O)C4CCNCC4)c3)c2c1` fall in the same range of IC50: 1 to 10 µM for the first, 1 to 10 µM for the second.

`O=C(NCc1ccccc1)c1cccc(-c2n[nH]c3ccc(-c4ncn[nH]4)cc23)c1` and `O=C(NCCOc1cccc(-c2n[nH]c3ccc(-c4ncn[nH]4)cc23)c1)OCc1ccccc1` cannot be ordered by IC50: 0.5 to 10 µM for the first, 1 to 10 µM for the second.

`O=C(N[C@@H]1c2ccccc2C[C@@H]1O)c1cccc(-c2n[nH]c3ccc(-c4ncn[nH]4)cc23)c1` and `O=C(N[C@H]1c2ccccc2C[C@H]1O)c1cccc(-c2n[nH]c3ccc(-c4ncn[nH]4)cc23)c1` fall in the same range of IC50: 1 to 10 µM for the first, 1 to 10 µM for the second.

`C(#Cc1n[nH]c2ccc(-c3nnc[nH]3)cc12)c1ccccc1` and `O=C(NC1Cc2ccccc2C1)c1cccc(-c2n[nH]c3ccc(-c4ncn[nH]4)cc23)c1` cannot be ordered by IC50: 1 to 10 µM for the first, 0.5 to 10 µM for the second.
